{"source": "patent US20140134261A1", "about": "(priority 2012, published 2014)", "key": {"μ-opiate receptor": {"molecular_target": "μ-opiate receptor (Homo sapiens, UniProt P35372)", "sequence (P35372 whole entry)": "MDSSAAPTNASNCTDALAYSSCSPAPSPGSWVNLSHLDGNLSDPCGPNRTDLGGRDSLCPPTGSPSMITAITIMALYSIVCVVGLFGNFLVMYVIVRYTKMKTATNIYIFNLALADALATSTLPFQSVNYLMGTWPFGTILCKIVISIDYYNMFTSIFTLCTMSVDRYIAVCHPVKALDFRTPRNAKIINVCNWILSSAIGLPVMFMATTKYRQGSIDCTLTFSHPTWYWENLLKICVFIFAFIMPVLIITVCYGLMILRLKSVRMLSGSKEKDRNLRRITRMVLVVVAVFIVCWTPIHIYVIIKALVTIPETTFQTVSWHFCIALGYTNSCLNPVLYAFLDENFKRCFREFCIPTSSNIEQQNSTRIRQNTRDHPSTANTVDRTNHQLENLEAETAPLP", "details": "cited from earlier work"}, "macrophages": {"test_system": "macrophages", "details": "preincubation with 10 μM; cited from earlier work"}, "[1]": {"test_system": "cytochrome (CYP) enzymes present in the human liver", "details": "in vitro; cited from earlier work"}, "[2]": {"details": "1 mg/kg systemic, before cecal ligation and puncture, late sepsis period; cited from earlier work"}, "TRPV1 receptor": {"molecular_target": "TRPV1 receptor (Homo sapiens, UniProt Q8NER1)", "sequence (Q8NER1 whole entry)": "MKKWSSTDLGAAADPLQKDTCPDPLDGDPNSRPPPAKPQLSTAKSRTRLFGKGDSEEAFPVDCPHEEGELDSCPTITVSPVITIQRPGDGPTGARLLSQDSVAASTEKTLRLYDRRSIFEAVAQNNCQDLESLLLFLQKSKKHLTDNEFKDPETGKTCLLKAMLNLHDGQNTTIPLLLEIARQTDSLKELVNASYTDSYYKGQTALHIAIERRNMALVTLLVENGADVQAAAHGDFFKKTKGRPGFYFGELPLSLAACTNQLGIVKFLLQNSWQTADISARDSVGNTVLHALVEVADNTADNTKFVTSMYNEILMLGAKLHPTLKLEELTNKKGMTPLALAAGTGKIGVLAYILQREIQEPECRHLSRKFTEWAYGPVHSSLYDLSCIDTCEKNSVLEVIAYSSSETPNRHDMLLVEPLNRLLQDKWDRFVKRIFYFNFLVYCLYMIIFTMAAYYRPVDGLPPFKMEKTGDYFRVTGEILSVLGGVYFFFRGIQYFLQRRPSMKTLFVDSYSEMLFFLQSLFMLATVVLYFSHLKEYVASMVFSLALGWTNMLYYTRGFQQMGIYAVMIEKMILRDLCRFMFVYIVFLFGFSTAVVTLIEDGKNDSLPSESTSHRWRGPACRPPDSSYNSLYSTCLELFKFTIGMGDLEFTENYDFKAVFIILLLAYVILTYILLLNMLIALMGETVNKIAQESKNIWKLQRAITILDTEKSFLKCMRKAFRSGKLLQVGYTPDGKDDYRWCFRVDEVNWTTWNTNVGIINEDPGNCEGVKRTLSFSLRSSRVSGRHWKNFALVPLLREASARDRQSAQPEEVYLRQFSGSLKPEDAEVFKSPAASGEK", "details": "cited from earlier work"}, "[3]": {"details": "in vitro; cited from earlier work"}, "[4]": {"details": "male rats, diet with 30% lard, capsaicin at 0.14% of the diet; cited from earlier work"}, "[5]": {"test_system": "PC-3 prostate cancer xenografts", "details": "given orally; cited from earlier work"}, "NF-κ-B": {"test_system": "NF-κ-B", "details": "pretreatment of human myeloid ML-1a cells; cited from earlier work"}, "[6]": {"test_system": "Rat peritoneal macrophages", "details": "10 μM, pre-incubated 1 h; cited from earlier work"}, "[7]": {"details": "humans, after ingestion of 26.6 mg of capsaicin; cited from earlier work"}}, "note": "Read-outs that look alike come from different tables or passages of the source.", "data": [{"compound": "0-desmethyltramadol [Example M1]", "values": [{"measurement": "analgesic potency relative to the parent drug tramadol", "setting": "μ-opiate receptor", "result": "at least twice the analgesic potency"}]}, {"compound": "COc1cc(CNC(=O)CCCCC=CC(C)C)ccc1O", "note": "[capsaicin, 8-methyl-N-vanillyl-6-nonenamide]", "values": [{"measurement": "superoxide anions, hydrogen peroxide, and nitrite radical production", "setting": "macrophages", "result": "completely inhibited"}, {"measurement": "metabolism by CYP enzymes in the human liver", "setting": "[1]", "result": "metabolized rapidly"}, {"measurement": "lipid peroxidation in various tissues, including lung and liver", "setting": "[2]", "result": "decreased"}, {"measurement": "affinity as exogenous agonist for the TRPV1 receptor", "setting": "TRPV1 receptor", "result": "low nanomolar affinity"}, {"measurement": "metabolism in human skin", "setting": "[3]", "result": "quite slow"}, {"measurement": "serum triglyceride levels versus high-fat diet without capsaicin", "setting": "[4]", "result": "significantly lower"}, {"measurement": "growth of xenografts as measured by size", "setting": "[5]", "result": "significantly slowed"}, {"measurement": "TNF-mediated activation of NF-κ-B", "setting": "NF-κ-B", "result": "blocked"}, {"measurement": "inhibition of incorporation of arachidonic acid into membrane lipids", "setting": "[6]", "result": 76, "unit": "%"}, {"measurement": "inhibition of leukotriene B4", "setting": "[6]", "result": 46, "unit": "%"}, {"measurement": "inhibition of leukotriene C4", "setting": "[6]", "result": 48, "unit": "%"}, {"measurement": "inhibition of prostaglandin E2", "setting": "[6]", "result": 48, "unit": "%"}, {"measurement": "duration of pain at the site of application", "setting": "about 1 gram of 8% capsaicin ointment on forehand", "result": "~48", "unit": "h"}, {"measurement": "burning sensation at the site of application", "setting": "about 1 gram ointment (14.25% capsaicin palmitate or 8% capsaicin) on forehand, six healthy volunteers, asked after 30 minutes", "result": "intense burning"}, {"measurement": "duration of pain and inflammation", "setting": "application of 8% capsaicin", "result": "almost a day"}, {"measurement": "time to intense pain at the site of application", "setting": "application of 8% capsaicin", "result": "≤ 15", "unit": "min"}, {"measurement": "burning pain at the site of application", "setting": "topical ointment, about 14.25% capsaicin palmitate (about 8% of capsaicin) or 8% capsaicin, no topical anesthetic", "result": "intense pain"}, {"measurement": "Cmax", "setting": "[7]", "result": "2.5 (0.1) ng ml^−1"}, {"measurement": "Tmax", "setting": "[7]", "result": "47.1 (2.0) min"}]}, {"compound": "Palmitoyl Ester of Capsaicin USP (Formula I, R=—(CH2)14—CH3) [capsaicin palmitate]", "values": [{"measurement": "burning pain at the site of application", "setting": "human, in vivo", "result": "almost no burning pain"}, {"measurement": "burning sensation at the site of application", "setting": "human, in vivo", "result": "did not cause any burning sensation"}]}]}
